In patent publication US20260070917A1, “CYCLIN DEPENDENT KINASE DEGRADERS AND METHODS OF USE THEREOF” (Differentiated Therapeutics Inc, priority 2023, published 2026):
Read-outs that look alike come from different tables or passages of the source.

Legend:
Format in all cases: cell-based
CDK2 = target: T1, CDK2 (Homo sapiens, UniProt P24941); assay: HiBit Assay Protocol for CDK2 (HIBIT protein quantification, degradation); conditions: HEK293-CDK2-Hibit cells, compound treatment for 6 hours; for DC50: ABS DC50
T1 construct: host or cells: HEK293-CDK2-Hibit
Method: HiBit Assay Protocol for CDK2
• 1. The culture medium for HEK293-CDK2-Hibit cells was prepared using DMEM with 10% FBS. • 2. Cells were cultivated in T-75 flasks in a cell culture incubator set at 37° C., 5% CO2, 95% relative humidity. Cells were allowed to reach 80-90% confluence before detaching and splitting. • 3. Cultivated cells were rinsed in T-75 flasks with 5 mL PBS. Aspirate off Added was 1.5 mL trypsin, and the cells were incubated at 37° C. for approximately 5 minutes or until the cells detached and floated. • 4. Trypsin was inactivated by adding excess serum containing medium. • 5. Cells were harvested from flask into cell culture medium and then the cell number was counted. HEK293-CDK2-Hibit cells were seeded into 384-well plate (cell density: 1.6×10^5 cells/well/50 uL medium) in DMEM medium according to the plate map below and incubated overnight at 37° C. and 5% CO2. • Note: Cell Cultured Medium: 90% DMEM+10% FBS+1% Penicillin-Streptomycin Liquid
(§1) • 1. Test compounds were dissolved at 10 mM DMS stock solution. 45 uL of stock solution was transferred to a 384 pp-plate. A 3-fold, 10-point dilution was performed via transferring 15 uL compound into 30 uL DMSO by using TECAN liquid handler. • 2. The plates were spinned at room temperature at 1,000 RPM for 1 minute. • 3. 50 nL of diluted compound was transferred from compound source plate into the cell plate by Echo. • 4. After compound treatment for 6 hours, the plate was removed from incubators and equilibrated at room temperature for 15 minutes. The HiBit reagent was prepared, consisting of the following ratios: 10 mL of Nano-Glo®-HiBiT Lytic Buffer, 200 μL of Nano-Glo®-HiBiT Lytic Substrate and 100 uL of LgBiT Protein, mixed thoroughly. 20 μL of HiBit reagent was added into each well and the plates were spinned at room temperature at 1,000 RPM for 1 minute to be detected. Then the plates were shaken at 600 RPM at room temperature for 20 minutes, and read by EnVision. • 5. The inhibition activity was calculated following the formula below:
(§2) [formula] • Note: Where HC is obtained from cells treated with […] only; LC is obtained from culture medium only. • 6. ABS DC50 was calculated by fitting the Curve using Xlfit (v5.3.1.3), equation 201: […]

CCNE1 = target: T2, CCNE1 (Homo sapiens, UniProt P24864); assay: HiBit Assay Protocol for CCNE1 (HIBIT protein quantification, degradation); conditions: HEK293-CCNE1-Hibit cells, compound treatment for 6 hours
T2 construct: host or cells: HEK293-CCNE1-Hibit
T2 sequence (P24864 whole entry): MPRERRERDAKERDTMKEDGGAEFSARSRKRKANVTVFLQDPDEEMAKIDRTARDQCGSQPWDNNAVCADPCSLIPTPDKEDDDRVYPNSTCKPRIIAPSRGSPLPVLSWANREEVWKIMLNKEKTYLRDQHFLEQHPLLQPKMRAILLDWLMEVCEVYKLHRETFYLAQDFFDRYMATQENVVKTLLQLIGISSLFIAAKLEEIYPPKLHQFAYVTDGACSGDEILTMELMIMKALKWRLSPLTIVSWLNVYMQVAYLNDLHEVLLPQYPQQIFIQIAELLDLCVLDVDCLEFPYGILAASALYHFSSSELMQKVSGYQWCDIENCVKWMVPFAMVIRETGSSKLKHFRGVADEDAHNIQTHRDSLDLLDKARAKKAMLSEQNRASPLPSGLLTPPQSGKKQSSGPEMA
Method: HiBit Assay Protocol for CCNE1
• 1. The culture medium for HEK293-CCNE1-Hibit cell was prepared using EMEM with […]. • 2. Cells were cultivated in T-75 flasks in a cell culture incubator set at 37° C., 5% CO2, 95% relative humidity. Cells were allowed to reach 80-90% confluence before detaching and splitting. • 3. Cultivated cells were rinsed in T-75 flasks with 5 mL PBS. Aspirate off Added was 1.5 mL trypsin, and the cells were incubated at 37° C. for approximately 5 minutes or until the cells detached and floated. • 4. Trypsin was inactivated by adding excess serum containing medium. • 5. Cells were harvested from flask into cell culture medium and then the cell number was counted. HEK293-CCNE1-Hibit cell were seeded into 384-well plate (cell density: 1.6×10^5 cells/well/50 uL medium) in EMEM medium according to the plate map below and incubated overnight at 37° C. and […]. • Note: Cell Cultured Medium: 90% EMEM+10% FBS+1% Penicillin-Streptomycin Liquid
as §1, with “mM DMSO” for “mM DMS”, “45 μL” for “45 uL”, “100 μL” for “100 uL”, “Protein, mix” for “Protein, mixed”
as §2

CDK9 = target: T3, CDK9 (Homo sapiens, UniProt P50750); assay: HiBit Assay Protocol for CDK9 (HIBIT protein quantification, degradation); conditions: HEK293-CDK9-Hibit cells, compound treatment for 6 hours; for Dmax: read-out: CDK9 HIBIT Protein Quantification Maximum
T3 construct: host or cells: HEK293-CDK9-Hibit
T3 sequence (P50750 whole entry): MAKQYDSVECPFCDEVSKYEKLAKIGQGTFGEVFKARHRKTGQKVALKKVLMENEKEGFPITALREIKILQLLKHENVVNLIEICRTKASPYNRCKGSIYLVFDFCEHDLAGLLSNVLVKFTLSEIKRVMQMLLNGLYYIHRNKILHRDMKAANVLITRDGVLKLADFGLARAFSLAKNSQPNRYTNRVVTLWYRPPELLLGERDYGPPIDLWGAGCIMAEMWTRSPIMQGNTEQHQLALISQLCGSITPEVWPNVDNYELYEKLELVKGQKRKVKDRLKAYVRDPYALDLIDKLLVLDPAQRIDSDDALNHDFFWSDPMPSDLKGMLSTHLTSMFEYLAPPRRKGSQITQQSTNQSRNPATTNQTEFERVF
Method: HiBit Assay Protocol for CDK9
• 1. The culture medium for HEK293-CDK9-Hibit cell was prepared using DMEM with 10% FBS. • 2. Cells were cultivated in T-75 flasks in a cell culture incubator set at 37° C., 5% CO2, 95% relative humidity. Cells were allowed to reach 80-90% confluence before detaching and splitting. • 3. Cultivated cells were rinsed in T-75 flasks with 5 mL PBS. Aspirated off. Added 1.5 mL trypsin, and incubated the cells at 37° C. for approximately 5 minutes or until the cells detached and floated. • 4. Trypsin was inactivated by adding excess serum containing medium. • 5. Cells were harvested from flask into cell culture medium and then the cell number was counted. HEK293-CDK9-Hibit cells were seeded into 384-well plate (cell density: 1.6×10^5 cells/well/50 uL medium) in DMEM medium according to the plate map below and were incubated overnight at 37° C. and 5% CO2. • Note: Cell Cultured Medium: 90% DMEM+10% FBS+1% Penicillin-Streptomycin Liquid
• 1. Test compounds were dissolved at 3 mM DMSO stock solution. Transferred 45 uL of stock solution to a 384 pp-plate. Perform 3-fold, 10-point dilution via transferring 15 uL compound into 30 uL DMSO by using TECAN liquid handler. • 2. The plates were spinned at room temperature at 1,000 RPM for 1 minute. • 3. Transferred 50 nL of diluted compound from compound source plate into the cell plate by Echo. • 4. After compound treatment for 6 hours, removed the plate from incubators and equilibrated at room temperature for 15 minutes. Prepared the HiBit reagent consists of the following ratios: 10 mL of Nano-Glo®-HiBiT Lytic Buffer, 200 uL of Nano-Glo®-HiBiT Lytic Substrate and 100 uL of LgBiT Protein, mixed thoroughly. Added 20 uL of HiBit reagent into each well and spinned the plates at room temperature at 1,000 RPM for 1 minute to be detected. Plates were then shaken at 600 RPM at room temperature for 20 minutes, and read by EnVision. • 5. The inhibition activity was calculated following the formula below:
[formula] • Note: Where HC was obtained from cells treated with 0.1% DMSO only; LC was obtained from culture medium only. • 6. The ABS DC50 was calculated by fitting the Curve using Xlfit (v5.3.1.3), equation 201: […]

| Structure (SMILES) | CDK2 HIBIT Protein Quantification Maximum (CDK2) | DC50 (CDK2) | CCNE1 HIBIT Protein Quantification Maximum (CCNE1) | CDK9 HIBIT Protein Quantification Maximum (CDK9) | Dmax (CDK9; 6 h) | Dmax (CDK9) | DC50 (CDK9; ABS DC50) |
| --- | --- | --- | --- | --- | --- | --- | --- |
| CC(c1cc(S(=O)(=O)N2CC[C@H](Nc3ncc4c(n3)N([C@@H]3CCC[C@@H](O)C3)C(=O)C43CC3)[C@H](F)C2)ccc1F)N1CCC(c2ccc3c(N4CCC(=O)NC4=O)nn(C)c3c2)CC1 (single isomer, unassigned) [Compound 201, 1-(6-{1-[(1R*)-1-{2-Fluoro-5-[(3R,4S)-3-fluoro-4-{7′-[(1R,3R)-3-hydroxycyclohexyl]-6′-oxospiro[cyclopropane-1,5′-pyrrolo[2,3-d]pyrimidin]-2′-ylamino}piperidin-1-ylsulfonyl]phenyl}ethyl]piperidin-4-yl}-1-methylindazol-3-yl)-1,3-diazinane-2,4-dione] | 88% | 5.66 nM | 47% | 23% |  |  |  |
| CC(C)[C@H]1CN([C@@H](C)c2cccc(S(=O)(=O)N3CC[C@H](Nc4ncc5c(n4)N([C@@H]4CCC[C@@H](O)C4)C(=O)C54CC4)[C@H](F)C3)c2)CCN1c1ccc2c(N3CCC(=O)NC3=O)nn(C)c2c1 (single isomer, unassigned) [Compound 202] | 88% | 10.9 nM | 37% |  | 20% |  |  |
| O=C1CCC(N2Cc3cc(N4CCN(C5CN(c6cccc(S(=O)(=O)N7CCC(Nc8ncc9c(n8)N([C@H]8CCC[C@H](O)C8)C(=O)C98CC8)CC7)c6)C5)CC4)ccc3C2=O)C(=O)N1 (stereo in doubt) [Compound 133, 3-[5-(4-{1-[3-(4-{7′-[(1S,3S)-3-Hydroxycyclohexyl]-6′-oxospiro[cyclopropane-1,5′-pyrrolo[2,3-d]pyrimidin]-2′-ylamino}piperidin-1-ylsulfonyl)phenyl]azetidin-3-yl}piperazin-1-yl)-1-oxo-3H-isoindol-2-yl]piperidine-2,6-dione] | 61% | 9.23 nM | 26% |  | 14% |  |  |
| Cn1nc(N2CCC(=O)NC2=O)c2ccc(C3CCN(Cc4cncc(S(=O)(=O)N5CCC(Nc6ncc7c(n6)N([C@H]6CCC[C@H](O)C6)C(=O)C76CC6)CC5)c4)CC3)cc21 (stereo in doubt) [Compound 161, 1-[6-(1-{[5-(4-{7′-[(1S,3S)-3-Hydroxycyclohexyl]-6′-oxospiro[cyclopropane-1,5′-pyrrolo[2,3-d]pyrimidin]-2′-ylamino}piperidin-1-ylsulfonyl)pyridin-3-yl]methyl}piperidin-4-yl)-1-methylindazol-3-yl]-1,3-diazinane-2,4-dione] | 79% | 6.06 nM | 45% |  |  | 17% |  |
| CC(C)[C@H]1CN([C@H](C)c2cccc(S(=O)(=O)N3CC[C@H](Nc4ncc5c(n4)N([C@@H]4CCC[C@@H](O)C4)C(=O)C54CC4)[C@H](F)C3)c2)CCN1c1ccc2c(N3CCC(=O)NC3=O)nn(C)c2c1 (stereo in doubt) [Compound 203] | 85% | 10.2 nM | 34% |  | 18% |  |  |
| CC1CCCC1N1C(=O)C2(CC2)c2cnc(NC3CCN(S(=O)(=O)N4CC5(CCN(C(=O)Cc6cccc7c6n(C)c(=O)n7C6CCC(=O)NC6=O)CC5)C4)CC3)nc21 (stereo not shown) [Compound 15] | 27% |  | 15% |  | -3% |  |  |
| CC1CCCC1N1C(=O)C2(CC2)c2cnc(NC3CCN(S(=O)(=O)N4CC5CN(C(=O)CCc6cccc7c6n(C)c(=O)n7C6CCC(=O)NC6=O)CC5C4)CC3)nc21 (stereo not shown) [Compound 16] | 49% |  | 17% |  | 57% |  | 3.67 nM |
| CC1CCCC1N1C(=O)C2(CC2)c2cnc(NC3CCN(S(=O)(=O)N4CCC5(CCCN5C(=O)CCc5cccc6c5n(C)c(=O)n6C5CCC(=O)NC5=O)C4)CC3)nc21 (stereo not shown) [Compound 17] | 54% | 17 nM | 26% |  | 26% |  |  |
| CC1CCCC1N1C(=O)C2(CC2)c2cnc(NC3CCN(S(=O)(=O)N4CC5(CCN(C(=O)Cc6ccc7c(c6)n(C)c(=O)n7C6CCC(=O)NC6=O)CC5)C4)CC3)nc21 (stereo not shown) [Compound 54] | 14% |  |  |  | 4% |  |  |
| CC1CCCC1N1C(=O)C2(CC2)c2cnc(NC3CCN(S(=O)(=O)N4CC5C4CCN5C(=O)CCCCc4cccc5c4n(C)c(=O)n5C4CCC(=O)NC4=O)CC3)nc21 (stereo not shown) [Compound 98] | 31% |  |  |  | 15% |  |  |
| CC1CCCC1N1C(=O)C2(CC2)c2cnc(NC3CCN(S(=O)(=O)C4CCCN(C(=O)CCCCc5ccc6c(c5)n(C)c(=O)n6C5CCC(=O)NC5=O)C4)CC3)nc21 (stereo not shown) [Compound 115] | 23% |  |  |  | 7% |  |  |
| C[C@@H](c1cc(S(=O)(=O)N2CC[C@H](Nc3ncc4c(n3)N([C@@H]3CCC[C@@H](O)C3)C(=O)C43CC3)[C@H](F)C2)ccc1F)N1CCN(c2ccc3c(N4CCC(=O)NC4=O)nn(C)c3c2)CC1 [Compound 211] | 88% | 12.1 nM | 40% |  |  |  |  |
